Measured values reported in PubChem BioAssay (NCI).
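A five-concentration, 48-hour dose response in 96-well plates underlies each endpoint, interpolated linearly between surrounding concentrations. Abbreviation: GI50, concentration required for 50% inhibition of growth. TGI denotes the concentration required for complete inhibition of growth.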

Legend:
Test in all cases: growth of human tumour cells (NCI), 48 h
[1] = test system: A498 renal
[2] = test system: LOX IMVI melanoma
[3] = test system: BT-549 breast
[4] = test system: HCC-2998 colon
[5] = test system: NCI-H226 lung
[6] = test system: A549 NSCLC
[7] = test system: MDA-MB-468 breast
[8] = test system: T-47D breast
[9] = test system: MDA-MB-231 breast
[10] = test system: IGROV1 ovarian
[11] = test system: SK-MEL-5 melanoma
[12] = test system: SK-MEL-28 melanoma
[13] = test system: SF-268 CNS
[14] = test system: HOP-62 NSCLC
[15] = test system: OVCAR-3 ovarian
[16] = test system: MOLT-4 leukemia
[17] = test system: SNB-19 CNS
[18] = test system: OVCAR-4 ovarian
[19] = test system: CAKI-1 renal
[20] = test system: SF-295 CNS
[21] = test system: RXF 393 renal
[22] = test system: SK-OV-3 ovarian
[23] = test system: UO-31 renal
[24] = test system: K-562 leukemia
[25] = test system: EKVX NSCLC
[26] = test system: UACC-257 melanoma
[27] = test system: HT29 colon
[28] = test system: HOP-92 NSCLC
[29] = test system: SF-539 CNS

`COC1=C[C@]23CCC(=O)N2CCc2cc4c(cc2[C@@H]3[C@@H]1OC(=O)[C@H](C)O)OCO4` showed a GI50 [1] of 6.02 µM, a TGI [1] of 32.1 µM and a GI50 [2] of 2.31 µM. The TGI [2] was 13.3 µM, the GI50 [3] was 10.5 µM and the TGI [3] was 32.8 µM. It also gave a GI50 [4] of 2.27 µM, a TGI [4] of 10.5 µM and a GI50 [5] of 3.52 µM. It also gave a TGI [5] of 29.8 µM, a GI50 [6] of 7.13 µM and a TGI [6] of 50.6 µM. The GI50 [7] was 2.3 µM, the TGI [7] was 15.1 µM and the GI50 [8] was 6.98 µM. For the same compound, the TGI [8] was 47.1 µM, the GI50 [9] was 13.2 µM and the TGI [9] was greater than 52 µM. It also gave a GI50 [10] of 6.52 µM, a TGI [10] greater than 52 µM and a GI50 [11] of 3.7 µM. The TGI [11] was 12.4 µM, the GI50 [12] was 8.47 µM and the TGI [12] was 31.5 µM. It also gave a GI50 [13] of 15.3 µM, a TGI [13] greater than 52 µM and a GI50 [14] of 10.2 µM. For the same compound, the TGI [14] was greater than 52 µM, the GI50 [15] was 4.11 µM and the TGI [15] was 42.2 µM. For the same compound, the GI50 [16] was 1.87 µM, the TGI [16] was greater than 52 µM and the GI50 [17] was 4.85 µM. The TGI [17] was 31.1 µM, the GI50 [18] was 8.79 µM and the TGI [18] was greater than 52 µM. The GI50 [19] was 14.1 µM, the TGI [19] was greater than 52 µM and the GI50 [20] was 9.24 µM. It also gave a TGI [20] of 36.3 µM, a GI50 [21] of 1.63 µM and a TGI [21] of 5.85 µM. For the same compound, the GI50 [22] was 7.82 µM, the TGI [22] was 51.5 µM and the GI50 [23] was 5.28 µM. The TGI [23] was 39.3 µM, the GI50 [24] was 2.61 µM and the TGI [24] was greater than 52 µM. The GI50 [25] was 10.5 µM, the TGI [25] was greater than 52 µM and the GI50 [26] was 10.5 µM. It also gave a TGI [26] of 42.1 µM, a GI50 [27] of 4.41 µM and a TGI [27] greater than 52 µM. It also gave a GI50 [28] of 6.12 µM, a TGI [28] of 33.4 µM and a GI50 [29] of 2.99 µM. It also gave a TGI [29] of 14.8 µM.
